Legend:
Experiment in all cases: Selective postemergence, track sprayer
Type in all cases: in vivo
Barley = tested on: Barley
Method: (§1) Representative compositions of the present invention were evaluated for the postemergence control of species of plants listed in Table A. In these evaluations, pots of the plant species listed in Table A, grown to a height of about 10 cms, were used. Aqueous spray compositions, containing various amounts of 2-[4-(2-fluoro-4-trifluoromethylphenoxy)-phenoxy]propionic acid methy ester, i.e., 125 ppm, 62.5 ppm, 31.25 ppm, 15.6 ppm, 7.8 ppm and 3.9 ppm, respectively, were applied to separate pots. The spray compositions were made by mixing the active ingredient in acetone to 1/2 the final volume, i.e., twice the final concentration. An equal amount of water was added to the active ingredient/acetone mixture wherein the water contained 0.1 percent by weight of TWEEN® 200 surfactant. The application to the plants was made to the point of run-off and was carried out with conventional spraying equipment. Other pots were sprayed with similar compositions containing no toxicant to serve as controls. Thereafter, the pots were maintained under conditions conducive for plant growth. Two weeks after treatment, the pots were examined for plant growth and evaluated on a scale of 0 to 100 where 0 represents no effect and 100 represents complete kill. The results of the examination of the treated pots are set forth below in Table A.
(§2) To further define the selective postemergence herbicidal characteristics of compounds of the present invention, chemicals were applied to additional species of grasses as listed in Table F. Chemicals evaluated were 2-[4-(4-bromo-2-fluorophenoxy)phenoxy]propionic acid methyl ester and its R isomer. Treatment conditions were similar to those described in Example A except that chemicals were delivered through a track sprayer set to deliver the appropriate dosages in 280.6 L/hectare of water containing 0.1% Tween-20 surfactant.

Sprangletop = tested on: Sprangletop
Method: as §1, §2

Yellow Foxtail = tested on: Yellow Foxtail
Method: as §1, §2

Canarygrass = tested on: Canarygrass
Method: as §1, §2

Tall Fescue = tested on: Tall Fescue
Method: as §1, §2

Giant Foxtail = tested on: Giant Foxtail
Method: as §1, §2

Bermudagrass = tested on: Bermudagrass
Method: as §1, §2

Wild Proso Millet = tested on: Wild Proso Millet
Method: as §1, §2

Johnsongrass = tested on: Johnsongrass
Method: as §1, §2

Cheatgrass = tested on: Cheatgrass
Method: as §1, §2

Fall Panicum = tested on: Fall Panicum
Method: as §1, §2

Wild Oats = tested on: Wild Oats
Method: as §1, §2

Crabgrass = tested on: Crabgrass
Method: as §1, §2

In the case of `COC(=O)C(C)Oc1ccc(Oc2ccc(Br)cc2F)cc1` (racemic) [Example 4-Bromo-, 2-[4-(4-bromo-2-fluorophenoxy)phenoxy]propionic acid methyl ester], the “Percent Control” value (Barley; 0.0011 kgs/hectare) was 0%, the “Percent Control” value (Barley; 0.0023 kgs/hectare) was 0% and the “Percent Control” value (Barley; 0.0045 kgs/hectare) was 0%. For the same compound, the “Percent Control” value (Barley; 0.009 kgs/hectare) was 0%, the “Percent Control” value (Barley; 0.018 kgs/hectare) was 0% and the “Percent Control” value (Barley; 0.035 kgs/hectare) was 0%. For the same compound, the “Percent Control” value (Barley; 0.07 kgs/hectare) was 0%, the “Percent Control” value (Barley; 0.14 kgs/hectare) was 10% and the “Percent Control” value (Barley; 0.28 kgs/hectare) was 20%. For the same compound, the “Percent Control” value (Barley; 0.56 kgs/hectare) was 50%, the “Percent Control” value (Sprangletop; 0.0011 kgs/hectare) was 0% and the “Percent Control” value (Sprangletop; 0.0023 kgs/hectare) was 20%. The “Percent Control” value (Sprangletop; 0.0045 kgs/hectare) was 95%, the “Percent Control” value (Sprangletop; 0.009 kgs/hectare) was 100% and the “Percent Control” value (Sprangletop; 0.035 kgs/hectare) was 100%. The “Percent Control” value (Sprangletop; 0.14 kgs/hectare) was 100%, the “Percent Control” value (Sprangletop; 0.28 kgs/hectare) was 100% and the “Percent Control” value (Sprangletop; 0.56 kgs/hectare) was 100%. For the same compound, the “Percent Control” value (Yellow Foxtail; 0.0011 kgs/hectare) was 0%, the “Percent Control” value (Yellow Foxtail; 0.0023 kgs/hectare) was 0% and the “Percent Control” value (Yellow Foxtail; 0.0045 kgs/hectare) was 0%. The “Percent Control” value (Yellow Foxtail; 0.009 kgs/hectare) was 40%, the “Percent Control” value (Yellow Foxtail; 0.035 kgs/hectare) was 80% and the “Percent Control” value (Yellow Foxtail; 0.07 kgs/hectare) was 100%. The “Percent Control” value (Yellow Foxtail; 0.14 kgs/hectare) was 100%, the “Percent Control” value (Yellow Foxtail; 0.28 kgs/hectare) was 100% and the “Percent Control” value (Yellow Foxtail; 0.56 kgs/hectare) was 100%. For the same compound, the “Percent Control” value (Canarygrass; 0.0011 kgs/hectare) was 0%, the “Percent Control” value (Canarygrass; 0.0023 kgs/hectare) was 0% and the “Percent Control” value (Canarygrass; 0.0045 kgs/hectare) was 0%. For the same compound, the “Percent Control” value (Canarygrass; 0.009 kgs/hectare) was 0%, the “Percent Control” value (Canarygrass; 0.035 kgs/hectare) was 50% and the “Percent Control” value (Canarygrass; 0.07 kgs/hectare) was 100%. The “Percent Control” value (Canarygrass; 0.14 kgs/hectare) was 100%, the “Percent Control” value (Canarygrass; 0.28 kgs/hectare) was 100% and the “Percent Control” value (Canarygrass; 0.56 kgs/hectare) was 100%. The “Percent Control” value (Tall Fescue; 0.0011 kgs/hectare) was 0%, the “Percent Control” value (Tall Fescue; 0.0023 kgs/hectare) was 10% and the “Percent Control” value (Tall Fescue; 0.0045 kgs/hectare) was 20%. For the same compound, the “Percent Control” value (Tall Fescue; 0.009 kgs/hectare) was 20%, the “Percent Control” value (Tall Fescue; 0.035 kgs/hectare) was 60% and the “Percent Control” value (Tall Fescue; 0.14 kgs/hectare) was 90%. For the same compound, the “Percent Control” value (Tall Fescue; 0.28 kgs/hectare) was 95%, the “Percent Control” value (Tall Fescue; 0.56 kgs/hectare) was 95% and the “Percent Control” value (Giant Foxtail; 0.0011 kgs/hectare) was 100%. The “Percent Control” value (Giant Foxtail; 0.0023 kgs/hectare) was 100%, the “Percent Control” value (Giant Foxtail; 0.0045 kgs/hectare) was 100% and the “Percent Control” value (Giant Foxtail; 0.009 kgs/hectare) was 100%. For the same compound, the “Percent Control” value (Giant Foxtail; 0.035 kgs/hectare) was 100%, the “Percent Control” value (Giant Foxtail; 0.14 kgs/hectare) was 100% and the “Percent Control” value (Giant Foxtail; 0.28 kgs/hectare) was 100%. The “Percent Control” value (Giant Foxtail; 0.56 kgs/hectare) was 100%, the “Percent Control” value (Bermudagrass; 0.0011 kgs/hectare) was 0% and the “Percent Control” value (Bermudagrass; 0.0023 kgs/hectare) was 0%. For the same compound, the “Percent Control” value (Bermudagrass; 0.0045 kgs/hectare) was 0%, the “Percent Control” value (Bermudagrass; 0.009 kgs/hectare) was 20% and the “Percent Control” value (Bermudagrass; 0.035 kgs/hectare) was 90%. For the same compound, the “Percent Control” value (Bermudagrass; 0.07 kgs/hectare) was 95%, the “Percent Control” value (Bermudagrass; 0.14 kgs/hectare) was 90% and the “Percent Control” value (Bermudagrass; 0.28 kgs/hectare) was 100%. The “Percent Control” value (Bermudagrass; 0.56 kgs/hectare) was 100%, the “Percent Control” value (Wild Proso Millet; 0.0011 kgs/hectare) was 20% and the “Percent Control” value (Wild Proso Millet; 0.0023 kgs/hectare) was 20%. The “Percent Control” value (Wild Proso Millet; 0.0045 kgs/hectare) was 70%, the “Percent Control” value (Wild Proso Millet; 0.009 kgs/hectare) was 80% and the “Percent Control” value (Wild Proso Millet; 0.035 kgs/hectare) was 100%. The “Percent Control” value (Wild Proso Millet; 0.07 kgs/hectare) was 100%, the “Percent Control” value (Wild Proso Millet; 0.14 kgs/hectare) was 100% and the “Percent Control” value (Wild Proso Millet; 0.28 kgs/hectare) was 100%. For the same compound, the “Percent Control” value (Wild Proso Millet; 0.56 kgs/hectare) was 100%, the “Percent Control” value (Johnsongrass; 0.0011 kgs/hectare) was 0% and the “Percent Control” value (Johnsongrass; 0.0023 kgs/hectare) was 0%. For the same compound, the “Percent Control” value (Johnsongrass; 0.0045 kgs/hectare) was 0%, the “Percent Control” value (Johnsongrass; 0.009 kgs/hectare) was 0% and the “Percent Control” value (Johnsongrass; 0.035 kgs/hectare) was 0%. For the same compound, the “Percent Control” value (Johnsongrass; 0.07 kgs/hectare) was 0%, the “Percent Control” value (Johnsongrass; 0.14 kgs/hectare) was 20% and the “Percent Control” value (Johnsongrass; 0.28 kgs/hectare) was 30%. For the same compound, the “Percent Control” value (Johnsongrass; 0.56 kgs/hectare) was 80%, the “Percent Control” value (Cheatgrass; 0.0011 kgs/hectare) was 0% and the “Percent Control” value (Cheatgrass; 0.0023 kgs/hectare) was 0%. The “Percent Control” value (Cheatgrass; 0.0045 kgs/hectare) was 0%, the “Percent Control” value (Cheatgrass; 0.009 kgs/hectare) was 0% and the “Percent Control” value (Cheatgrass; 0.018 kgs/hectare) was 0%. The “Percent Control” value (Cheatgrass; 0.035 kgs/hectare) was 0%, the “Percent Control” value (Cheatgrass; 0.07 kgs/hectare) was 0% and the “Percent Control” value (Cheatgrass; 0.14 kgs/hectare) was 0%. For the same compound, the “Percent Control” value (Cheatgrass; 0.28 kgs/hectare) was 0%, the “Percent Control” value (Cheatgrass; 0.56 kgs/hectare) was 20% and the “Percent Control” value (Fall Panicum; 0.0011 kgs/hectare) was 0%. The “Percent Control” value (Fall Panicum; 0.0023 kgs/hectare) was 20%, the “Percent Control” value (Fall Panicum; 0.0045 kgs/hectare) was 50% and the “Percent Control” value (Fall Panicum; 0.009 kgs/hectare) was 80%. For the same compound, the “Percent Control” value (Fall Panicum; 0.035 kgs/hectare) was 100%, the “Percent Control” value (Fall Panicum; 0.14 kgs/hectare) was 100% and the “Percent Control” value (Fall Panicum; 0.28 kgs/hectare) was 100%. The “Percent Control” value (Fall Panicum; 0.56 kgs/hectare) was 100%, the “Percent Control” value (Wild Oats; 0.0011 kgs/hectare) was 0% and the “Percent Control” value (Wild Oats; 0.0023 kgs/hectare) was 0%. The “Percent Control” value (Wild Oats; 0.0045 kgs/hectare) was 0%, the “Percent Control” value (Wild Oats; 0.009 kgs/hectare) was 0% and the “Percent Control” value (Wild Oats; 0.035 kgs/hectare) was 40%. The “Percent Control” value (Wild Oats; 0.07 kgs/hectare) was 40%, the “Percent Control” value (Wild Oats; 0.14 kgs/hectare) was 70% and the “Percent Control” value (Wild Oats; 0.28 kgs/hectare) was 90%. The “Percent Control” value (Wild Oats; 0.56 kgs/hectare) was 100%, the “Percent Control” value (Crabgrass; 0.0011 kgs/hectare) was 0% and the “Percent Control” value (Crabgrass; 0.0023 kgs/hectare) was 0%. The “Percent Control” value (Crabgrass; 0.0045 kgs/hectare) was 50%, the “Percent Control” value (Crabgrass; 0.009 kgs/hectare) was 50% and the “Percent Control” value (Crabgrass; 0.035 kgs/hectare) was 100%. For the same compound, the “Percent Control” value (Crabgrass; 0.07 kgs/hectare) was 100%, the “Percent Control” value (Crabgrass; 0.14 kgs/hectare) was 100% and the “Percent Control” value (Crabgrass; 0.28 kgs/hectare) was 100%. The “Percent Control” value (Crabgrass; 0.56 kgs/hectare) was 100%.
